Measured values: publication PMC4385830, “Group I Paks as therapeutic targets in NF2-deficient meningioma” (Oncotarget, 2015)

Key:
Experiment in all cases: Kinase selectivity, Z'-LYTE
Assay type in all cases: biochemical
ADRBK2 (GRK3) = molecular target: T1, ADRBK2 (GRK3) (Homo sapiens, UniProt P35626)
T1 construct: purchased Invitrogen (Life Technologies) SelectScreen Z'-LYTE
T1 sequence (P35626 1-688): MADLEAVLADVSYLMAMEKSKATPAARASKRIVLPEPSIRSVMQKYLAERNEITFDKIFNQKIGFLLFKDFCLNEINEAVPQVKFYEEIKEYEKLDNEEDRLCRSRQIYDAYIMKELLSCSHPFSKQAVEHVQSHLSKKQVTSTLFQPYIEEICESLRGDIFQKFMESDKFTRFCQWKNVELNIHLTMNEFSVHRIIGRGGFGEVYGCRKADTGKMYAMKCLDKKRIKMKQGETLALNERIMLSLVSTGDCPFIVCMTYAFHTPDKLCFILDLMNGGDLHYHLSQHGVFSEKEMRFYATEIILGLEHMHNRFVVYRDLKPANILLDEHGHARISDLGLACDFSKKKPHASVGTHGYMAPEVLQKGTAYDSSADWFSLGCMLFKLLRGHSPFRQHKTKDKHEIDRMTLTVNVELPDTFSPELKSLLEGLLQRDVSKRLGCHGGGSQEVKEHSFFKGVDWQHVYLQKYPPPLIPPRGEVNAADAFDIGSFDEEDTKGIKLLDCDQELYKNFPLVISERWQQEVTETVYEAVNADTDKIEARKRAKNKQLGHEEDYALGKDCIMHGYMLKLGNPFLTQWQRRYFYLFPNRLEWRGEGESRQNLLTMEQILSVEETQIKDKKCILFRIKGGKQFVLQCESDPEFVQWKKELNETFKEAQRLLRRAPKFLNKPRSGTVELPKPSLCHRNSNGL
Method in brief: (§1)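 Each recombinant kinase phosphorylates a peptide substrate under conditions optimized for that enzyme. A protease then cleaves only non-phosphorylated peptide, and the fluorescence change reports kinase activity.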

BTK = molecular target: T2, BTK (Homo sapiens, UniProt Q06187)
T2 construct: purchased Invitrogen (Life Technologies) SelectScreen Z'-LYTE
Method in brief: as §1

CDK5/p35 = molecular target: T3, CDK5/p35 (Homo sapiens, UniProt Q00535)
T3 construct: purchased Invitrogen (Life Technologies) SelectScreen Z'-LYTE
T3 sequence (Q00535 whole entry): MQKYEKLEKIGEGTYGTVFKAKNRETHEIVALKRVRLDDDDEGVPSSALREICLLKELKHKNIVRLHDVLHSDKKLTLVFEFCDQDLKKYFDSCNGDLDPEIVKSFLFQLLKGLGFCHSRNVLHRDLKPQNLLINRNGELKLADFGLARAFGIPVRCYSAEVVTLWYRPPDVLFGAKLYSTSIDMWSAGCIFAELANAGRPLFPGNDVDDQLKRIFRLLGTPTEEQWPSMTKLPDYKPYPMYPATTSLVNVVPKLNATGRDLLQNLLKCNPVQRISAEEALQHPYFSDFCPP
T3 sequence (Q15078 whole entry partner): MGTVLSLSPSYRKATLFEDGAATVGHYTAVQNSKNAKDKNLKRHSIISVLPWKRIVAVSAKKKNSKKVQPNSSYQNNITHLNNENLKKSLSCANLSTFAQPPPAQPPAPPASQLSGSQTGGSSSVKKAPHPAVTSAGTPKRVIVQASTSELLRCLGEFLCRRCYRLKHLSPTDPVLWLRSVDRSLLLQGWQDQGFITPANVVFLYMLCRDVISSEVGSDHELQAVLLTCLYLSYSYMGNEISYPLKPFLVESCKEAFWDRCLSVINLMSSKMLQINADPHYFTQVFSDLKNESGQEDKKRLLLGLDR
Method in brief: as §1

CDK9/cyclin T1 = molecular target: T4, CDK9/cyclin T1 (Homo sapiens, UniProt P50750)
T4 construct: purchased Invitrogen (Life Technologies) SelectScreen Z'-LYTE
Method in brief: as §1

DYRK1A = molecular target: T5, DYRK1A (Homo sapiens, UniProt Q13627)
T5 construct: purchased Invitrogen (Life Technologies) SelectScreen Z'-LYTE
Method in brief: as §1

EPHA2 = molecular target: T6, EPHA2 (Homo sapiens, UniProt P29317)
T6 construct: purchased Invitrogen (Life Technologies) SelectScreen Z'-LYTE
Method in brief: as §1

IGF1R = molecular target: T7, IGF1R (Homo sapiens, UniProt P08069)
T7 construct: purchased Invitrogen (Life Technologies) SelectScreen Z'-LYTE
Method in brief: as §1

JAK3 = molecular target: T8, JAK3 (Homo sapiens, UniProt P52333)
T8 construct: purchased Invitrogen (Life Technologies) SelectScreen Z'-LYTE
T8 sequence (P52333 1-1124): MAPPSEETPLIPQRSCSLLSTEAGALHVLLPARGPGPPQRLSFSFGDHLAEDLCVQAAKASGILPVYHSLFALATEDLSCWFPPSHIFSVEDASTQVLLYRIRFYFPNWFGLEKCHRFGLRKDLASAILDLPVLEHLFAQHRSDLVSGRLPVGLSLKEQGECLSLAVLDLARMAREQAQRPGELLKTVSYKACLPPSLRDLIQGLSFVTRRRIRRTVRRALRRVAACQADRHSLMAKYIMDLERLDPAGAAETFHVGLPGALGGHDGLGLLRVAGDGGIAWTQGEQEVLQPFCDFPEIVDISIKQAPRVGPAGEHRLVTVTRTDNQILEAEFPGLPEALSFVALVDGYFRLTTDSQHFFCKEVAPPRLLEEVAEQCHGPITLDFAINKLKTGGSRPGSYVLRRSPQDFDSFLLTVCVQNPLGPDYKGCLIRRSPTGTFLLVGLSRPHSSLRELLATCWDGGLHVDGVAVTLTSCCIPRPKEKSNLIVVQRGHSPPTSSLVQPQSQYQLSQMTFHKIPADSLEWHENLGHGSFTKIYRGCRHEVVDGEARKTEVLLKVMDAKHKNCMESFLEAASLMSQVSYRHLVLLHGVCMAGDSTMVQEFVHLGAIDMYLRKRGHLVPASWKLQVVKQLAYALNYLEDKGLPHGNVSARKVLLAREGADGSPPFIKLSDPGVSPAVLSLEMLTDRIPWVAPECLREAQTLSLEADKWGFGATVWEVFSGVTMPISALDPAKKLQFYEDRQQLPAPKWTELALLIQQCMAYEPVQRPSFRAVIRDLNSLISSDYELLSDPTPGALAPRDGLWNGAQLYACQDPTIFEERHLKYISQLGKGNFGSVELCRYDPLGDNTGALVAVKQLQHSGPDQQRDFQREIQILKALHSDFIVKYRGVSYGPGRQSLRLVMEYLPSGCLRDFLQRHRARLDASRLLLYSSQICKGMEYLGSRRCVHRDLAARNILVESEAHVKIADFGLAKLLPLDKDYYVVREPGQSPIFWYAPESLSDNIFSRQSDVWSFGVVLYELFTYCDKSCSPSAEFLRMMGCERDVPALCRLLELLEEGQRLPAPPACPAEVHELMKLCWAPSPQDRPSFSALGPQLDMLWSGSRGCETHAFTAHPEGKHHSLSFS
Method in brief: as §1

[1] = molecular target: T9, MAPK14 (p38 alpha) Direct (Homo sapiens, UniProt Q16539)
T9 construct: purchased Invitrogen (Life Technologies) SelectScreen Z'-LYTE
Method in brief: as §1

MARK3 = molecular target: T10, MARK3 (Homo sapiens, UniProt P27448)
T10 construct: purchased Invitrogen (Life Technologies) SelectScreen Z'-LYTE
T10 sequence (P27448 whole entry): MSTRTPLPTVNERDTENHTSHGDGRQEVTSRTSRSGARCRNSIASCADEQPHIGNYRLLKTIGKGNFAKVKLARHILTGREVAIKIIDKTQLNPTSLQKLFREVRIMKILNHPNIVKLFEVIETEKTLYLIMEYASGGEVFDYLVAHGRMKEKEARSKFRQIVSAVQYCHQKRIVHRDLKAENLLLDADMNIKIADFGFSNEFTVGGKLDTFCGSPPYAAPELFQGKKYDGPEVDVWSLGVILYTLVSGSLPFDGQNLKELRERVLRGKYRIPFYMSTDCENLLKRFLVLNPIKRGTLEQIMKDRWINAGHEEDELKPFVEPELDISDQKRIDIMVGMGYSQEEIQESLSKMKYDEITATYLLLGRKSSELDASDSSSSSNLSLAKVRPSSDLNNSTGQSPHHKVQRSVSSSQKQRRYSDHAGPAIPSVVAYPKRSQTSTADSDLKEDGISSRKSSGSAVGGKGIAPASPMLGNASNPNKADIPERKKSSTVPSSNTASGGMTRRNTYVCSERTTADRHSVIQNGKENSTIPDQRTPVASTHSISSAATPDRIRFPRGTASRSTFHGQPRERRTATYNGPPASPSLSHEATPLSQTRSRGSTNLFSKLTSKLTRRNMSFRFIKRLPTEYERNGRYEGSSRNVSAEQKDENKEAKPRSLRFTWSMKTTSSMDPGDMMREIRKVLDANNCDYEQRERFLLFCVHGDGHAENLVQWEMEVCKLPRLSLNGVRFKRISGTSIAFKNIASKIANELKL
Method in brief: as §1

MST1R (RON) = molecular target: T11, MST1R (RON) (Homo sapiens, UniProt Q04912)
T11 construct: purchased Invitrogen (Life Technologies) SelectScreen Z'-LYTE
Method in brief: as §1

[2] = molecular target: T12, P1K3CA/PIK3R1 (p110 alpha) (Homo sapiens, UniProt P42336)
T12 construct: purchased Invitrogen (Life Technologies) SelectScreen Z'-LYTE
T12 sequence (P42336 whole entry): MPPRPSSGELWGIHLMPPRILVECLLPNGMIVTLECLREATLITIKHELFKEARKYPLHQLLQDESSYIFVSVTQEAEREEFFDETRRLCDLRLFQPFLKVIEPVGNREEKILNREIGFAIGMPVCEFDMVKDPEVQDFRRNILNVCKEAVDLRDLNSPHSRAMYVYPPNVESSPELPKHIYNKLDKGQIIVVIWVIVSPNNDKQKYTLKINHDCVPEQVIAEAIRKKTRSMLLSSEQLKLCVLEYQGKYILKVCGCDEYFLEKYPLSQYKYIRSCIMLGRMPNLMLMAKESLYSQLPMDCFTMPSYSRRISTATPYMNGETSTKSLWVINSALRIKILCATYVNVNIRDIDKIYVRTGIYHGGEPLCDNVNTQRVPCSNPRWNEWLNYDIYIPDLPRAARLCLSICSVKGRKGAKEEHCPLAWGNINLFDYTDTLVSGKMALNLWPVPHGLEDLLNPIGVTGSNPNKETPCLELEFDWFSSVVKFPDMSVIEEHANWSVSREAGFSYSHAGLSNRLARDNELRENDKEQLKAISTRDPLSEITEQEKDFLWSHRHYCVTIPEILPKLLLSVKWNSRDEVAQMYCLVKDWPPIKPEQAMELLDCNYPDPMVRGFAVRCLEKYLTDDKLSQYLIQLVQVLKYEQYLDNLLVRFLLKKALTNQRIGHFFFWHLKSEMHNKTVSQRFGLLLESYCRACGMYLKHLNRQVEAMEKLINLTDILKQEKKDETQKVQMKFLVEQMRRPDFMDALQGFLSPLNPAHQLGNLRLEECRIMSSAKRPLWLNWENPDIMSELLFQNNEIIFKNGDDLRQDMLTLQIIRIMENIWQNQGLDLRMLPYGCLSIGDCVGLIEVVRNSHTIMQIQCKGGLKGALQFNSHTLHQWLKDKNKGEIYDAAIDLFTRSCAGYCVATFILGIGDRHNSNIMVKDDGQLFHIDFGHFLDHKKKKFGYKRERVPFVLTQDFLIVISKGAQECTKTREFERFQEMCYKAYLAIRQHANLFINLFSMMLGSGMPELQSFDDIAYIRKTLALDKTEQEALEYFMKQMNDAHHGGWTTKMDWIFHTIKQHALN
T12 sequence (P27986 whole entry partner): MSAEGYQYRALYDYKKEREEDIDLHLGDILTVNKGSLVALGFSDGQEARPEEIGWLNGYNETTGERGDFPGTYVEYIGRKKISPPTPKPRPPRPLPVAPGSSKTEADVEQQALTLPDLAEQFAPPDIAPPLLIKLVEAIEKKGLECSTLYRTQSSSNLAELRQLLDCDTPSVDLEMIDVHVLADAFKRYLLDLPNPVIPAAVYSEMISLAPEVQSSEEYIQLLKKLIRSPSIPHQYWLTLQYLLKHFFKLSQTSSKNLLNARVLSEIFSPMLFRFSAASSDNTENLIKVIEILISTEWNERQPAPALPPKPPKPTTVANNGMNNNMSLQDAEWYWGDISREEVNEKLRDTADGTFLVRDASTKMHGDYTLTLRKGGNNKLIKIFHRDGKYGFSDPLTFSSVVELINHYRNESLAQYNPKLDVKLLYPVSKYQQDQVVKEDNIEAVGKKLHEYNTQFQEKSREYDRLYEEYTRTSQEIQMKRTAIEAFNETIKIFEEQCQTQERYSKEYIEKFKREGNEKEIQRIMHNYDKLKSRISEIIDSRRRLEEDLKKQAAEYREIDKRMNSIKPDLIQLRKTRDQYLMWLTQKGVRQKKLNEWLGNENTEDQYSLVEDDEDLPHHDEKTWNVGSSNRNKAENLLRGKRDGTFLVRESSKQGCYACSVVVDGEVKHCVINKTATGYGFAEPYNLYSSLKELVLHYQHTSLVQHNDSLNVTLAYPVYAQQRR
Method in brief: as §1

PAK3 = molecular target: T13, PAK3 (Homo sapiens, UniProt O75914)
T13 construct: purchased Invitrogen (Life Technologies) SelectScreen Z'-LYTE
Method in brief: as §1

PDGFRA (PDGFR alpha) = molecular target: T14, PDGFRA (PDGFR alpha) (Homo sapiens, UniProt P16234)
T14 construct: purchased Invitrogen (Life Technologies) SelectScreen Z'-LYTE
T14 sequence (P16234 24-1089): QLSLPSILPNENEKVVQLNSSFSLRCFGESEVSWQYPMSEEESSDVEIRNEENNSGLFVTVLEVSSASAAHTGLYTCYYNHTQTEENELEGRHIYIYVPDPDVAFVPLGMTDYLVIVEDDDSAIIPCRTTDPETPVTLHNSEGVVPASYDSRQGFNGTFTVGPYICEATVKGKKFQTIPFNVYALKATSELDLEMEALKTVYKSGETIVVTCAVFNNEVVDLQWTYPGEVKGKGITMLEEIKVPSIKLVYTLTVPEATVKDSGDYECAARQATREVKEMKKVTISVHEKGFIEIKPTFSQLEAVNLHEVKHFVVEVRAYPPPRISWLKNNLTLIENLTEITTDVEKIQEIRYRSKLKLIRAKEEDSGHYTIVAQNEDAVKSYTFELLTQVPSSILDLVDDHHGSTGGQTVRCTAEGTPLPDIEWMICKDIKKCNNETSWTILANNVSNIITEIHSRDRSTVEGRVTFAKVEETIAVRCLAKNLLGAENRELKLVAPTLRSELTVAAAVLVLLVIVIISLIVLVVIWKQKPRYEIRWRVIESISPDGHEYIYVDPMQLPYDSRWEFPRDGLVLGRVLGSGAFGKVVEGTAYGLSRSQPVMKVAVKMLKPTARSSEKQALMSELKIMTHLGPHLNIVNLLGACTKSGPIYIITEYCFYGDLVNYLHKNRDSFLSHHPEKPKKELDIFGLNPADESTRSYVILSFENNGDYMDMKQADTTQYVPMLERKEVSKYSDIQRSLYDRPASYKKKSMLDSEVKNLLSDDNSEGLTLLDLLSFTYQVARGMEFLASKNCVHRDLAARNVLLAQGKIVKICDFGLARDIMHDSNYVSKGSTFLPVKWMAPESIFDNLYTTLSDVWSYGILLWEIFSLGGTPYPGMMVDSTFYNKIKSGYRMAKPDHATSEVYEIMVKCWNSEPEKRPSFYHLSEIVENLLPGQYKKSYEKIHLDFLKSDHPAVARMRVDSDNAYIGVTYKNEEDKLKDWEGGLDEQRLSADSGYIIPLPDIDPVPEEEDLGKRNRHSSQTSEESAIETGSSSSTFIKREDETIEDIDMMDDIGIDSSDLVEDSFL
Method in brief: as §1

PDGFRB (PDGFR beta) = molecular target: T15, PDGFRB (PDGFR beta) (Homo sapiens, UniProt P09619)
T15 construct: purchased Invitrogen (Life Technologies) SelectScreen Z'-LYTE
Method in brief: as §1

RAF1 (cRAF) Y340D Y341D = molecular target: T16, RAF1 (cRAF) Y340D Y341D (Homo sapiens, UniProt P04049, Y340D/Y341D)
T16 construct: purchased Invitrogen (Life Technologies) SelectScreen Z'-LYTE
T16 sequence (P04049 whole entry Y340D/Y341D): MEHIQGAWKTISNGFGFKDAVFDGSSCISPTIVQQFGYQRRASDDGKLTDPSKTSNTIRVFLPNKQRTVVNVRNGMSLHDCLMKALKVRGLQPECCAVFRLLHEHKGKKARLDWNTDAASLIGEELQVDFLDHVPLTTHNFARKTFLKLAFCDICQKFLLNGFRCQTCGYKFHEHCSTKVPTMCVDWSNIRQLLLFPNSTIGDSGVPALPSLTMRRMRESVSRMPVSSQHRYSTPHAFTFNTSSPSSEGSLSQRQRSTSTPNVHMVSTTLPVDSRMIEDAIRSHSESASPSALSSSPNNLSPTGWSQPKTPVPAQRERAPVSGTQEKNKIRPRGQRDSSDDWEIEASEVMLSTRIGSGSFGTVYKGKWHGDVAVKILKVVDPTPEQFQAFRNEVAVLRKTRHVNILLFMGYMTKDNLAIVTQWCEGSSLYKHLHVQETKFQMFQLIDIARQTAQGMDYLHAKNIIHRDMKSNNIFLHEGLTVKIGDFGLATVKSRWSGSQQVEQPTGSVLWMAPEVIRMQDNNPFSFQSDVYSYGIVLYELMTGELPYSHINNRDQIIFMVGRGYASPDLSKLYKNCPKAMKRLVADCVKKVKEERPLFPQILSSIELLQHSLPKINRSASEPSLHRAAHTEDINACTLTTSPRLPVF
Method in brief: as §1

% inhibition of activity (ADRBK2 (GRK3)) [%]	% inhibition of activity (BTK) [%]	% inhibition of activity (CDK5/p35) [%]	% inhibition of activity (CDK9/cyclin T1) [%]	% inhibition of activity (DYRK1A) [%]	% inhibition of activity (EPHA2) [%]	% inhibition of activity (IGF1R) [%]	% inhibition of activity (JAK3) [%]	% inhibition of activity [1] [%]	% inhibition of activity (MARK3) [%]	% inhibition of activity (MST1R (RON)) [%]	% inhibition of activity [2] [%]	% inhibition of activity (PAK3) [%]	% inhibition of activity (PDGFRA (PDGFR alpha)) [%]	% inhibition of activity (PDGFRB (PDGFR beta)) [%]	% inhibition of activity (RAF1 (cRAF) Y340D Y341D) [%]	SMILES
4	74	15	13	6	18	10	10	7	100	8	0	100	2	14	26	Cc1nc(Nc2[nH]nc3c2CN(C(=O)N[C@H](CN(C)C)c2ccccc2)C3(C)C)c2sccc2n1 [PF3758309, reference compound]
−1	5	7	−8	5	18	7	0	0	24	55	0	106	2	83	11	CCn1c(=O)c(-c2ccc(-c3cncc(C)n3)cc2Cl)cc2cnc(NCCC3CCN(C)CC3)nc21 [Frax1036]

SMILES	% inhibition of activity (ADRBK2 (GRK3)) [%]	% inhibition of activity (BTK) [%]	% inhibition of activity (CDK5/p35) [%]	% inhibition of activity (CDK9/cyclin T1) [%]	% inhibition of activity (DYRK1A) [%]	% inhibition of activity (EPHA2) [%]	% inhibition of activity (IGF1R) [%]	% inhibition of activity (JAK3) [%]	% inhibition of activity [1] [%]	% inhibition of activity (MARK3) [%]	% inhibition of activity (MST1R (RON)) [%]	% inhibition of activity [2] [%]	% inhibition of activity (PAK3) [%]	% inhibition of activity (PDGFRA (PDGFR alpha)) [%]	% inhibition of activity (PDGFRB (PDGFR beta)) [%]	% inhibition of activity (RAF1 (cRAF) Y340D Y341D) [%]
CCn1c(=O)c(-c2ccc(-c3noc(C)n3)cc2Cl)cc2cnc(Nc3ccc(C4CCN(C)CC4)cc3)nc21 [Frax716]	2	87	2	3	3	68	23	3	10	16	40	−1	90	95	82	74
